In patent US11136351B2 (priority 2016, dated 2021):
Counter-ions that a name gives are not always drawn. Like-named read-outs stand apart in the source and are kept apart here.

Legend:
mouse HVA Ca^2+ channel = format: cell-based; settings: 50 μM
[1] = test system: HVA calcium channels in rat DRG neurons; format: cell-based
human α9α10 nAChRs = human α9α10 nAChRs (Homo sapiens, UniProt Q9GZZ6+Q9UGM1); settings: cited from earlier work
α7 nAChRs = α7 nAChRs (Homo sapiens, UniProt P36544); settings: cited from earlier work
rat α9α10 nAChRs = rat α9α10 nAChRs (Rattus norvegicus, UniProt P43144+Q9JLB5); settings: cited from earlier work
human α9α10 nAChR = molecular target: T1, human α9α10 nAChR (Homo sapiens, UniProt Q9GZZ6+Q9UGM1); format: cell-based; settings: 1 μM
T1 construct: expressed in transfected cells; host or cells: Xenopus laevis oocytes
T1 sequence (Q9UGM1 26-479 limits assumed): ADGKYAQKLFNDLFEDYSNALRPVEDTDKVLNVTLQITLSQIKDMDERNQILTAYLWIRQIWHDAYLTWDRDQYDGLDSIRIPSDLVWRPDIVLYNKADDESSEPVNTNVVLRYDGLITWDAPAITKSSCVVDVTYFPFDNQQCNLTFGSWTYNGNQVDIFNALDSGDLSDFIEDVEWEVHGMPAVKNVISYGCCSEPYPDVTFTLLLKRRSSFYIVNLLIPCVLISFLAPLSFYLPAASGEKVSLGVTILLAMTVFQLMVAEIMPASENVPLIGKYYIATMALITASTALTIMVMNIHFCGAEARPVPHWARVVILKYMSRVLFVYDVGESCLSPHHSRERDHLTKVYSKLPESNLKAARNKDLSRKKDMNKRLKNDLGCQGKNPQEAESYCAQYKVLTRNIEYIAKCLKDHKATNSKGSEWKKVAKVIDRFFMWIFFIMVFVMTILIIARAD
T1 sequence (Q9GZZ6 25-450): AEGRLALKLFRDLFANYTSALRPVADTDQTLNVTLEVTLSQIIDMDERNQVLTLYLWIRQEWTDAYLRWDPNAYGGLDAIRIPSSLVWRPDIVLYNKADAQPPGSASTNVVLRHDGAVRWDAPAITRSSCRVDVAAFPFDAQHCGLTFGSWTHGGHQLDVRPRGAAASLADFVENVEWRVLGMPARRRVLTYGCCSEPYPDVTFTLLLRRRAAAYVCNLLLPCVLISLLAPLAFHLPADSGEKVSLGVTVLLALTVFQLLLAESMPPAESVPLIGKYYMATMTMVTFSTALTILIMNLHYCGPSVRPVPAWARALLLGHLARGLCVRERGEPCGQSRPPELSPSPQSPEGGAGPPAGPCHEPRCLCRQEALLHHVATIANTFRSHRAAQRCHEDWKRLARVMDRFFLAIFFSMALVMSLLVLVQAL

Sequence of α7 nAChRs (P36544 23-502 limits assumed): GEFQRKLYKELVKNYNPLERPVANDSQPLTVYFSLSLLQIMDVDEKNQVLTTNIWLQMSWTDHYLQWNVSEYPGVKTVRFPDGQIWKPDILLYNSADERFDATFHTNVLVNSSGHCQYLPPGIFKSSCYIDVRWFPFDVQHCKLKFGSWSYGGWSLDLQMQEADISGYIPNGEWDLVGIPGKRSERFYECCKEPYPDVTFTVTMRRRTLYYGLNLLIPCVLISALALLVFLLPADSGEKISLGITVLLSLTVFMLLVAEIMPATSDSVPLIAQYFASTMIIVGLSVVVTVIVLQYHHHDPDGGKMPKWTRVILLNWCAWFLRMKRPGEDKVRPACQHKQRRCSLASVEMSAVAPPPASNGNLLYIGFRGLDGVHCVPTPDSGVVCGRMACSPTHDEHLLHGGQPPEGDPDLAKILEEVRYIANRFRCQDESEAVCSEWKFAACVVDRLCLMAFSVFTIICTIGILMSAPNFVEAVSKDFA
Sequence of human α9α10 nAChRs (Q9UGM1 26-479 limits assumed): as the sequence (Q9UGM1 26-479 limits assumed) above
Sequence of human α9α10 nAChRs (Q9GZZ6 25-450): as the sequence (Q9GZZ6 25-450) above
Sequence of rat α9α10 nAChRs (P43144 26-479 limits assumed): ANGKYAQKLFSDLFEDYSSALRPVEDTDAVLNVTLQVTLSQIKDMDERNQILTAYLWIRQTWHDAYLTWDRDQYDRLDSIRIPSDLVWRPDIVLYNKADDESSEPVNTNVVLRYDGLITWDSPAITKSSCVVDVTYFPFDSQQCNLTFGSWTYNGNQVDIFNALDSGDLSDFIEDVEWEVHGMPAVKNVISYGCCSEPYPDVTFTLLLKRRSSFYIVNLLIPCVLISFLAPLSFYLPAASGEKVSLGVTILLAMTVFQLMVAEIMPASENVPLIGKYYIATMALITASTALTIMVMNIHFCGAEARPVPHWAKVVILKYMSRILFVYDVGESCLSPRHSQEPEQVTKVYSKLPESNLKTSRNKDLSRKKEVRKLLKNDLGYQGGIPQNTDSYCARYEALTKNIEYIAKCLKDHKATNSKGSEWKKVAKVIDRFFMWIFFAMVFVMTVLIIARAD
Sequence of rat α9α10 nAChRs (Q9JLB5 25-447 limits assumed): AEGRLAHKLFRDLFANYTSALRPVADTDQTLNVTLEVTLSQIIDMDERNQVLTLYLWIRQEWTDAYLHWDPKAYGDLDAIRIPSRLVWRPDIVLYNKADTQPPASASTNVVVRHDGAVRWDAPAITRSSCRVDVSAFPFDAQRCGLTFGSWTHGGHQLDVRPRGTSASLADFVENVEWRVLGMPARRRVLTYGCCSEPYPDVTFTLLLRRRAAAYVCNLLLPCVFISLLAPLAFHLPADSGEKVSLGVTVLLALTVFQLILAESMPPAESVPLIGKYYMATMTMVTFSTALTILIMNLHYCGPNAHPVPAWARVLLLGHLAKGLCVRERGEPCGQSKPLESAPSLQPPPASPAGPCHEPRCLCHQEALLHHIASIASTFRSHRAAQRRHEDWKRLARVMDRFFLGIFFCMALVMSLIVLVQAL

Row | Compound | mouse HVA Ca^2+ channel I/Icontrol ± SEM (n) (mouse HVA Ca^2+ channel) | peak ICa inhibition (mouse HVA Ca^2+ channel) [%] | reversibility of IBa inhibition [1] | IBa I/Icontrol ± SEM (n) ([1]; 50 μM) | fraction of total IBa suppressed ([1]; 50 μM) [%] | rat HVA Ca^2+ channel I/Icontrol ± SEM (n) ([1]; 50 μM) | IC50 (human α9α10 nAChRs) [nM] | IC50 (α7 nAChRs) [nM] | IC50 (rat α9α10 nAChRs) [nM] | human α9α10 nAChR I/Icontrol ± SEM (n) (human α9α10 nAChR) | inhibition of HVA calcium currents by globular, ribbon and beads isomers [1] | rat HVA Ca^2+ channel I/Icontrol ± SEM (n) ([1]; 1 μM)
1 | NC[C@H](CC(=O)O)c1ccc(Cl)cc1 [Baclofen, R-(+)-baclofen hydrochloride] | 0.60 ± 0.03 (11) | 41.5±2.7 | reversible on washout | 0.64 ± 0.018 (36) | ~35 | 0.64 ± 0.01 (33) |  |  |  |  |  | 
2 | Vc1.1 |  |  |  |  |  |  | 765 | ~7100 | 64 | 0.57 ± 0.020 (17) | found to inhibit HVA calcium currents | 0.73 ± 0.03 (4)
